# Assay results as given in PMC12518996 (Frontiers in Pharmacology, 2025).
# How the values were obtained:
# Type in all cases: in vitro ADME
# MAOB = target: T1, MAOB (Homo sapiens, UniProt P27338); assay: Metabolite formation by recombinant human MAOB; details: trazodone 4 μM; 37 °C, 40 min
# T1 sequence (P27338 1-520): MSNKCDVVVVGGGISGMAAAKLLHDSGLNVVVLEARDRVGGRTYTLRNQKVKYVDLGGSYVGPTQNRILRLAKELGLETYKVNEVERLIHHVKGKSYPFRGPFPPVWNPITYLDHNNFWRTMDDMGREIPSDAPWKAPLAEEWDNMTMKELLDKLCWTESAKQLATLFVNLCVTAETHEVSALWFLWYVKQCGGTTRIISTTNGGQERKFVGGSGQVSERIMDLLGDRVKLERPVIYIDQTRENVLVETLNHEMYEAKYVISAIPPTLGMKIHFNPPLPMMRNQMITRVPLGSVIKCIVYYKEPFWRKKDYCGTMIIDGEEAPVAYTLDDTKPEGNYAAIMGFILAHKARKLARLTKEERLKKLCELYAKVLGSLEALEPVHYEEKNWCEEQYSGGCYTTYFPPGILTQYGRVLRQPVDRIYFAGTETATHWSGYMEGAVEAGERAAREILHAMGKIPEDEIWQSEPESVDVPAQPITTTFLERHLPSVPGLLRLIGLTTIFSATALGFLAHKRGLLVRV
# CYP3A2 = target: T2, CYP3A2 (Rattus norvegicus, UniProt P05183); assay: Metabolite formation by recombinant rat CYP3A2; details: trazodone 4 μM; NADPH; 37 °C, 40 min
# T2 sequence (P05183 1-504): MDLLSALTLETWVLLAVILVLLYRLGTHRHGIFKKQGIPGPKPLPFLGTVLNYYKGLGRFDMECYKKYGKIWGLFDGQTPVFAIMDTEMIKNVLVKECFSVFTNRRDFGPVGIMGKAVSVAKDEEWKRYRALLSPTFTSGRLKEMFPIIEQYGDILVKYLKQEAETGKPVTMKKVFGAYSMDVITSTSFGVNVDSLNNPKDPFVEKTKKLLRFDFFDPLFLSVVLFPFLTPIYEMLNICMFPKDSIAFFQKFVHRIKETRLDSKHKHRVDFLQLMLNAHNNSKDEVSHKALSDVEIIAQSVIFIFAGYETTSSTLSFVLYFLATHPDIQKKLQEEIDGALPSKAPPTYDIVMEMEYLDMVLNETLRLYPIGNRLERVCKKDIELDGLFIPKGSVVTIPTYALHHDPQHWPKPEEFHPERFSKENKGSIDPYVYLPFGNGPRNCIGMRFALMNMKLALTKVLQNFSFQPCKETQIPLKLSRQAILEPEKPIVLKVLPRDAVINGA
# Experimental: (§1) Each reaction was terminated with acetonitrile, centrifuged, and the supernatant was analyzed by identical UHPLC-Orbitrap setup outlined in §2.2, allowing direct comparison of metabolite spectra across all in-vitro systems.
# CYP2D4 = target: T3, CYP2D4 (Rattus norvegicus, UniProt Q64680); assay: Metabolite formation by recombinant rat CYP2D4; details: trazodone 4 μM; NADPH; 37 °C, 40 min
# T3 sequence (Q64680 1-500): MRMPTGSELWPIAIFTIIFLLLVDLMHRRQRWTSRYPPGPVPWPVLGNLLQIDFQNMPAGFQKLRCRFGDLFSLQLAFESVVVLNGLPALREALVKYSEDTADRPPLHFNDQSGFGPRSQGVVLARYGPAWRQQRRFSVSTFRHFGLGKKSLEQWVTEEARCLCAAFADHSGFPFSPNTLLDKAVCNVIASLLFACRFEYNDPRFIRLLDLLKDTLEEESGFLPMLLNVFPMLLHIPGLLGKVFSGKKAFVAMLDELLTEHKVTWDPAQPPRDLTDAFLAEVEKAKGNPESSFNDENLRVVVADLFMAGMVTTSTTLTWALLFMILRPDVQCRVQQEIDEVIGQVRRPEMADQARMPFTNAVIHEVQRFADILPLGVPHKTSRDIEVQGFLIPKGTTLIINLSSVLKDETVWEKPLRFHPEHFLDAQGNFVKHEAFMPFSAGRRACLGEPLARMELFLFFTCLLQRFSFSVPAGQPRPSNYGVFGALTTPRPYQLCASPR
# Experimental: (§2) To confirm the role of individual CYP isoforms in metabolizing trazodone, recombinant human and rat CYP enzymes were employed in separate incubations. […] Each reaction was terminated with acetonitrile, centrifuged, and the supernatant was analyzed by identical UHPLC-Orbitrap setup outlined in §2.2, allowing direct comparison of metabolite spectra across all in-vitro systems. […] This procedure helped confirm the contributions of individual isoforms to specific biotransformation reactions.
# CYP2B6 = target: T4, CYP2B6 (Homo sapiens, UniProt P20813); assay: Metabolite formation by recombinant human CYP2B6; details: trazodone 4 μM; NADPH; 37 °C, 40 min
# T4 sequence (P20813 1-491): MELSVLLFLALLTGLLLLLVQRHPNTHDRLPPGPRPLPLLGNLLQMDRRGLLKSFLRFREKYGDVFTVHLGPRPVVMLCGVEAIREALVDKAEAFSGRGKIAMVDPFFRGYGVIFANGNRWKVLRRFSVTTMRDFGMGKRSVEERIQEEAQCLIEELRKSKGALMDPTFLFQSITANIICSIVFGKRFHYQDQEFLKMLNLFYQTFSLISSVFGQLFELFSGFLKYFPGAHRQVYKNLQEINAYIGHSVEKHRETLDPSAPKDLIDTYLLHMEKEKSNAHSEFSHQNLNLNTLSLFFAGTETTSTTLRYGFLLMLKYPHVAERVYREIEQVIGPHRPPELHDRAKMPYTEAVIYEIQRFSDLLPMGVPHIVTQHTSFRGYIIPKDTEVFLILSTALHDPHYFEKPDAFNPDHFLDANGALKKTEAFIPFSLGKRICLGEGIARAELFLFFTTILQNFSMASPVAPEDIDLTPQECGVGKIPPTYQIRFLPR
# Experimental: as §2
# CYP2C9 = CYP2C9 (Homo sapiens, UniProt P11712); assay: Metabolite formation by recombinant human CYP2C9; details: trazodone 4 μM; NADPH; 37 °C, 40 min
# Experimental: as §1
# CYP2C9, sequence (P11712 whole entry): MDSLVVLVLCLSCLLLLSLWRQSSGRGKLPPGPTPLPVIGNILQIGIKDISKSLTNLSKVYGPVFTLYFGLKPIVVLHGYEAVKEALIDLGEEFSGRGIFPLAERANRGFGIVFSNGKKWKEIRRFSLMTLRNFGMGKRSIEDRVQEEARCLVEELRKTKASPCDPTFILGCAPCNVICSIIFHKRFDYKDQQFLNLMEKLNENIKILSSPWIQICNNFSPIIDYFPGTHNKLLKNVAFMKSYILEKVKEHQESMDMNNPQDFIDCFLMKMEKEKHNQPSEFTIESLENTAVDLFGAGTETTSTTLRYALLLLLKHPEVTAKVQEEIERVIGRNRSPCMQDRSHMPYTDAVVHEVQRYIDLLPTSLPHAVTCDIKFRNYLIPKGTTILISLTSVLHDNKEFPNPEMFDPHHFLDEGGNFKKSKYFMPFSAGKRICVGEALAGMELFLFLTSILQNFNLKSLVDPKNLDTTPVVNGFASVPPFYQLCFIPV
SMILES,Formation of trazodone phase I metabolite by recombinant human MAOB (as LC/MS peak areas) (MAOB),Formation of trazodone phase I metabolite by recombinant rat CYP3A2 (as LC/MS peak areas) (CYP3A2),Formation of trazodone phase I metabolite by recombinant rat CYP2D4 (as LC/MS peak areas) (CYP2D4),Formation of trazodone phase I metabolite by recombinant human CYP2B6 (as LC/MS peak areas) (CYP2B6),Formation of trazodone phase I metabolite by recombinant human CYP2C9 (as LC/MS peak areas) (CYP2C9)
O=c1n(CCCN2CCNCC2)nc2ccccn12 [Metabolite M15],0,3368,184,0,0
"Clc1cccc(N2CCNCC2)c1 [mCPP, m-chlorophenylpiperazine]",20,45534,3166,112,40
O=c1n(CCCO)nc2ccccn12 [Metabolite M20],0,5761,538,0,0
